What was measured:
[1] = target: T1, Human LBAT (Homo sapiens, UniProt Q14973); assay: LBAT (h/m) assay: 3H-taurocholic acid uptake in human LBAT-overexpressing cells; type: cell-based; conditions: 0.3 μM 3H-taurocholic acid and 7.5 μM cold taurocholic acid, 20 minutes, read-out: hLBAT IC50
T1 construct: expressed in transfected cells; kept under Geneticin selection
T1 sequence (Q14973 1-349): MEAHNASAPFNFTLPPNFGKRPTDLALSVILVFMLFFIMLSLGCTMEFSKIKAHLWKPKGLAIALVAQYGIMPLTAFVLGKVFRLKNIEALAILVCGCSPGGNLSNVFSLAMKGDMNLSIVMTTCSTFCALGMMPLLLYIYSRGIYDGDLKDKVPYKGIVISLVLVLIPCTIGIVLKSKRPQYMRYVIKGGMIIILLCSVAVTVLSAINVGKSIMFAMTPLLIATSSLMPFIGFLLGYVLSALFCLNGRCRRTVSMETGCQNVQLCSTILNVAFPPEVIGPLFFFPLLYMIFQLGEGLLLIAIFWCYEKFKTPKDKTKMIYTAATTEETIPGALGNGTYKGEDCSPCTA
Experimental: LBAT (h/m) Assay Protocol
20,000 cells (Human or Mouse LBAT-overexpressing cells) were seeded in 96-wells plate (Corning CLS3809) in 100 μL MEM-alpha medium (Gibco 12571-063) supplemented with 10% FBS (Gibco 10438026) containing Geneticin (Gibco 10131-027) (1 mg/mL) and incubated at 37° C. in 5% CO2 for 24 hours. After incubation, media was decanted from the wells and cells were washed two times with 300 μL of basal MEM-alpha medium (FBS-free). After decanting basal MEM-alpha medium each time, plates were tapped against paper towel to ensure maximum removal of residual media. For human LBAT, incubation mix was prepared by adding test inhibitor dilutions (3-fold serial dilution in DMSO (Sigma D2650), 10 points) in MEM-alpha (without FBS) containing 0.3 μM 3H-taurocholic acid (ARC ART-1368) and 7.5 μM cold taurocholic acid (Sigma T4009) (maintaining 0.2% final DMSO concentration). For mouse LBAT, incubation mix was prepared by adding test inhibitor dilutions (3-fold serial dilution in DMSO, 10 points) in MEM-alpha (without FBS) containing 0.3 μM 3H-taurocholic acid and 25 μM cold taurocholic acid maintaining 0.2% final DMSO concentration).
50 μL of incubation mix containing test inhibitors was then added to the wells (in duplicate) and the plates were incubated for 20 minutes in a CO2 incubator at 37° C. After incubation, the reaction was stopped by keeping the plates on ice water mix for 2-3 minutes and then the incubation mix was aspirated completely from the wells. The wells were washed two times with 250 μL of chilled unlabelled 1 mM taurocholic acid dissolved in HEPES (Gibco 15630080)-buffered (10 mM) HBSS (Gibco 14175079) (pH 7.4). The plates were tapped against a paper towel after every wash to ensure maximum removal of blocking buffer.
100 μL of MicroScint-20 (PerkinElmer 6013621) was added to the wells and kept overnight at room temperature before reading the plates in TopCount NXT™ Microplate Scintillation and Luminescence Counter from PerkinElmer under 3H Test protocol (set at 120 seconds reading time per well, with normal plate orientation).
(§1) Preparation of Test Compound Dilutions
(§2) All test compounds were provided in powder form at room temperature. 10 mM DMSO stocks of the test compounds were prepared, aliquoted and stored at −20° C. From the 10 mM DMSO stock of the compounds, a 3-fold serial dilution in DMSO was prepared to get a total of 10 dilutions of the test compounds. 0.5 μL of this dilution in DMSO was added to 250 μL of FBS-free basal media containing 3H-taurocholic acid and cold taurocholic acid to prepare the incubation mixture.

[2] = target: T2, Human ASBT (Homo sapiens, UniProt Q12908); assay: ASBT (h/m) assay: 3H-taurocholic acid uptake in human ASBT-overexpressing cells; type: cell-based; conditions: 0.25 μM 3H-taurocholic acid and 5 μM cold taurocholic acid, 20 minutes, read-out: hASBT IC50
T2 construct: expressed in transfected cells; kept under Puromycin selection
T2 sequence (Q12908 1-348): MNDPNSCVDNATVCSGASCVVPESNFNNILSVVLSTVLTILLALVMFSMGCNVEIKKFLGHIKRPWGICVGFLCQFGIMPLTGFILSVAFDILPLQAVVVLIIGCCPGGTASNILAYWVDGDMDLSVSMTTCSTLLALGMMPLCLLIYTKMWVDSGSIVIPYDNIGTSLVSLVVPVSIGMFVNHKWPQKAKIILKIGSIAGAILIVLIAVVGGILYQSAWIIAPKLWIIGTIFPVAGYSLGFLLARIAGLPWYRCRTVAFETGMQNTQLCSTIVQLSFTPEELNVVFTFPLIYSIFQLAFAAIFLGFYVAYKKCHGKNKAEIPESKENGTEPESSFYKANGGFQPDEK
Experimental: ASBT (h/m) Assay Protocol
10,000 cells (Human or Mouse ASBT-overexpressing cells) were seeded in 96-wells plate (Corning CLS3809) in 200 μL MEM-alpha medium (Gibco 12571-063) supplemented with 10% FBS (Gibco 10438026) containing Puromycin (Gibco A1113803) (10 μg/mL) and incubated at 37° C. in 5% CO2 for 48 hours. After incubation, media was decanted from the wells and cells were washed two times with 300 μL of basal MEM-alpha medium (FBS-free). After decanting basal MEM-alpha medium each time, plates were tapped against paper towel to ensure maximum removal of residual media. Test inhibitor dilutions (highest test concentration being 10 μM, 3-fold serial dilution, 10 points) prepared in DMSO (Sigma D2650) were added in incubation mix (maintaining 0.2% final DMSO concentration) containing 0.25 μM 3H-taurocholic acid (ARC ART-1368) and 5 μM of cold taurocholic acid (Sigma T4009). 50 μL of incubation mix containing test inhibitors was then added to the wells (in duplicate) and the plates were incubated for 20 minutes in a CO2 incubator at 37° C. After incubation, the reaction was stopped by keeping the plates on ice water mix for 2-3 minutes and then the incubation mix was aspirated completely from the wells. The wells were washed two times with 250 μL of chilled unlabelled 1 mM taurocholic acid dissolved in HEPES (Gibco 15630080)-buffered (10 mM) HBSS (Gibco 14175079) (pH 7.4). The plates were tapped against a paper towel after every wash to ensure maximum removal of blocking buffer.
100 μL of MicroScint-20 (PerkinElmer 6013621) was added to the wells and kept overnight at room temperature before reading the plates in TopCount NXT™ Microplate Scintillation and Luminescence Counter from PerkinElmer under 3H Test protocol (set at 120 seconds reading time per well).
as §1, §2

IC50 [1] [nM] | IC50 [2] [nM] | SMILES
218 | 167 | CCCCC1(CC)CN(c2ccccc2)c2cc(Br)c(O/C=C/C(=O)O)cc2S(=O)(=O)C1 (racemic) [Example 4, (E)-3-((7-bromo-3-butyl-3-ethyl-1,1-dioxido-5-phenyl-2,3,4,5-tetrahydro-1,5-benzothiazepin-8-yl)oxy)acrylic acid]
290 | 1230 | CCCCC1(CC)CN(c2ccccc2)c2cc(Br)c(O/C=C/C(=O)O)cc2S(=O)(=O)C1 (single isomer, unassigned) [Example 5, (E)-3-((7-bromo-3-butyl-3-ethyl-1,1-dioxido-5-phenyl-2,3,4,5-tetrahydro-1,5-benzothiazepin-8-yl)oxy)acrylic acid]
– | 1620 | CCCC[C@]1(CC)CN(c2ccccc2)c2cc(SC)c(O/C=C\C(=O)O)cc2S(=O)(=O)C1 (single isomer, unassigned) [Example 61]
96 | 156 | CCCC[C@]1(CC)CN(c2ccccc2)c2cc(SC)c(O/C=C/C(=O)O)cc2S(=O)(=O)N1 (single isomer, unassigned) [Example 78]
290 | 2010 | CCCC[C@@]1(CC)CN(c2ccccc2)c2cc(SC)c(O/C=C/C(=O)O)cc2S(=O)(=O)N1C (single isomer, unassigned) [Example 89]
1470 | 748 | CCCC[C@@]1(CC)CN(c2ccccc2)c2cc(NC)c(O/C=C/C(=O)O)cc2S(=O)(=O)C1 (single isomer, unassigned) [Example 92]
187 | 320 | CCCC[C@@]1(CC)CN(c2ccccc2)c2cc(F)c(O/C=C/C(=O)O)cc2S(=O)(=O)C1 (single isomer, unassigned) [Example 103]
33 | 138 | CCCC[C@]1(CC)CN(c2ccccc2)c2cc(N(C)C)c(O/C=C(\F)C(=O)O)cc2S(=O)(=O)C1 (single isomer, unassigned) [Example 110]
145 | 70 | CCCCC1(CCCC)CN(c2ccccc2)c2cc(SC)c(O/C=C/C(=O)O)cc2S(=O)(=O)C1 [Example 1, (E)-3-((3,3-dibutyl-7-(methylthio)-1,1-dioxido-5-phenyl-2,3,4,5-tetrahydro-1,5-benzothiazepin-8-yl)oxy)acrylic acid]
1470 | 40 | CCCCC1(CCCC)CN(c2ccccc2)c2cc(N(C)C)c(O/C=C/C(=O)O)cc2S(=O)(=O)C1 [Example 8, (E)-3-((3,3-dibutyl-7-(dimethylamino)-1,1-dioxido-5-phenyl-2,3,4,5-tetrahydro-1,5-benzothiazepin-8-yl)oxy)acrylic Acid]
1300 | 20 | CCCCC1(CCCC)CN(c2ccc(O)cc2)c2cc(SC)c(O/C=C/C(=O)O)cc2S(=O)(=O)C1 [Example 20, (E)-3-((3,3-dibutyl-5-(4-hydroxyphenyl)-7-(methylthio)-1,1-dioxido-2,3,4,5-tetrahydro-1,5-benzothiazepin-8-yl)oxy)acrylic Acid]
68 | – | CCCCC1(CCCC)CN(c2ccccc2)c2cc(SC)c(O/C=C(\F)C(=O)O)cc2S(=O)(=O)N1C [Example 105, (Z)-3-((3,3-dibutyl-2-methyl-7-(methylthio)-1,1-dioxido-5-phenyl-2,3,4,5-tetrahydro-1,2,5-benzothiadiazepin-8-yl)oxy)-2-fluoroacrylic Acid]

Further lines, the molecule ahead of its results:

SMILES | IC50 [1] [nM] | IC50 [2] [nM]
CCCCC1(CC)CN(c2ccccc2)c2cc(SC)c(O/C=C\C(=O)O)cc2S(=O)(=O)C1 (racemic) [Example 59, (Z)-3-((3-butyl-3-ethyl-7-(methylthio)-1,1-dioxido-5-phenyl-2,3,4,5-tetrahydro-1,5-benzothiazepin-8-yl)oxy)acrylic acid] | – | 85
CCCCC1(CC)CN(c2ccccc2)c2cc(SC)c(O/C=C/C(=O)O)cc2S(=O)(=O)N1 (racemic) [Example 76, (E)-3-((3-butyl-3-ethyl-7-(methylthio)-1,1-dioxido-5-phenyl-2,3,4,5-tetrahydro-1,2,5-benzothiadiazepin-8-yl)oxy)acrylic Acid] | 217 | 41
CCCCC1(CC)CN(c2ccccc2)c2cc(NC)c(O/C=C/C(=O)O)cc2S(=O)(=O)C1 (racemic) [Example 91, (E)-3-((3-butyl-3-ethyl-7-(methylamino)-1,1-dioxido-5-phenyl-2,3,4,5-tetrahydro-1,5-benzothiazepin-8-yl)oxy)acrylic Acid] | 1300 | 41
CCCCC1(CC)CN(c2ccccc2)c2cc(SC)c(O/C=C/C(=O)O)cc2S(=O)(=O)C1 (single isomer, unassigned) [Example 17, (E)-3-((3-butyl-3-ethyl-7-(methylthio)-1,1-dioxido-5-phenyl-2,3,4,5-tetrahydro-1,5-benzothiazepin-8-yl)oxy)acrylic acid] | 116 | –
CCCCC1(CC)CN(c2ccccc2)c2cc(Cl)c(O/C=C/C(=O)O)cc2S(=O)(=O)C1 (single isomer, unassigned) [Example 51, (E)-3-((3-butyl-7-chloro-3-ethyl-1,1-dioxido-5-phenyl-2,3,4,5-tetrahydro-1,5-benzothiazepin-8-yl)oxy)acrylic acid] | 96 | –
CCCC[C@@]1(CC)CN(c2ccccc2)c2cc(SC)c(O/C=C\C(=O)O)cc2S(=O)(=O)C1 (single isomer, unassigned) [Example 60] | 4220 | 39
CCCC[C@]1(CC)CN(c2ccccc2)c2cc(NC)c(O/C=C/C(=O)O)cc2S(=O)(=O)C1 (single isomer, unassigned) [Example 93] | 3160 | 52
CCCC[C@]1(CC)CN(c2ccccc2)c2cc(F)c(O/C=C/C(=O)O)cc2S(=O)(=O)C1 (single isomer, unassigned) [Example 102] | 298 | 3330
CCCCC1(CCCC)CN(c2ccccc2)c2cc(SCC)c(O/C=C/C(=O)O)cc2S(=O)(=O)C1 [Example 67, (E)-3-((3,3-dibutyl-7-(ethylthio)-1,1-dioxido-5-phenyl-2,3,4,5-tetrahydro-1,5-benzothiazepin-8-yl)oxy)acrylic Acid] | 461 | 192
